One assay deals with Adenosine receptor A2a (Homo sapiens, UniProt P29274).
Assay [1] addresses T1, Alpha-2A adrenergic receptor (Homo sapiens, UniProt P08913).
T1 sequence (P08913 whole entry): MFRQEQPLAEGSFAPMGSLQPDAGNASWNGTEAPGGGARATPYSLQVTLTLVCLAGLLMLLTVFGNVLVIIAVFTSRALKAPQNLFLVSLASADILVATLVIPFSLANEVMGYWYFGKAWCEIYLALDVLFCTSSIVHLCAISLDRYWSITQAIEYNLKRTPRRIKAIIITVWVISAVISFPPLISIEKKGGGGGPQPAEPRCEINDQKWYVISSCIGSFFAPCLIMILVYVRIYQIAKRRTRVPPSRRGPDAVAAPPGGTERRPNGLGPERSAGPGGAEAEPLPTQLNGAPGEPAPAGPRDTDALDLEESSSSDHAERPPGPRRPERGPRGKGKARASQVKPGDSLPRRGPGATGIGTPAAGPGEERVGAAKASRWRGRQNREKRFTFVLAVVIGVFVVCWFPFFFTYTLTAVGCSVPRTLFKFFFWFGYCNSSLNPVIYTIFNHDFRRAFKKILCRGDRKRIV
It counts as functional, cell-based.

Assay [2] addresses T2, Cholecystokinin receptor type A (Homo sapiens, UniProt P32238).
T2 sequence (P32238 whole entry): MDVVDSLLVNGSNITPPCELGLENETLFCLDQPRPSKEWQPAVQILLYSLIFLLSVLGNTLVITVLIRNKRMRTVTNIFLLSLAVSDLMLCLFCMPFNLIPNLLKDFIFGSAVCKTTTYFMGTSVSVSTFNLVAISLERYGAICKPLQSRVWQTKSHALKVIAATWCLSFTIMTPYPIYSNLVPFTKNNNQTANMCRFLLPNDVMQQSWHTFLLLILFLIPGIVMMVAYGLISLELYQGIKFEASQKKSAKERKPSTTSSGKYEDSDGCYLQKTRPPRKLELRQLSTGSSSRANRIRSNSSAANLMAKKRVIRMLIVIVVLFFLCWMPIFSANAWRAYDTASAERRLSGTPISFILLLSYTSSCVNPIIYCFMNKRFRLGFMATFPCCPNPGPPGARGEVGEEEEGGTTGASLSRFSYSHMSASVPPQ

Assay [3] addresses T3, Muscarinic acetylcholine receptor M1 (Homo sapiens, UniProt P11229).
T3 sequence (P11229 whole entry): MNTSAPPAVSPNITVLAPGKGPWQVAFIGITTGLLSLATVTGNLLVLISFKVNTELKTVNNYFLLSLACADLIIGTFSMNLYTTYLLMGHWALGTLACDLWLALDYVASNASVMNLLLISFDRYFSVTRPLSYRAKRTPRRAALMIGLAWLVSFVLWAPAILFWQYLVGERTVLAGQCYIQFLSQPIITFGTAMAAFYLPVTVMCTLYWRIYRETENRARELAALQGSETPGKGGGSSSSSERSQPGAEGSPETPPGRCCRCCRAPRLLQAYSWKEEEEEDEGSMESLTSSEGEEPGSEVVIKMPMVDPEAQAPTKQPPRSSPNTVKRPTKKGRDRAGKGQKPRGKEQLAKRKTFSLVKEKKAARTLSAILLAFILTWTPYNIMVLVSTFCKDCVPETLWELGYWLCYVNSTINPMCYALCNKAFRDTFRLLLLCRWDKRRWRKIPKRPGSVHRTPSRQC
It counts as functional.

Assay [4] deals with T4, Cannabinoid receptor 1 (Homo sapiens, UniProt P21554). It counts as functional, cell-based.
Assay [5] deals with T4, Cannabinoid receptor 1. It counts as functional, cell-based. This is another data set of the same source.
In assay [6] the target is Glutamate receptor ionotropic, NMDA 1 (Rattus norvegicus, UniProt P35439).
The target in assay [7] is T5, 5-hydroxytryptamine receptor 3A (Homo sapiens, UniProt P46098).
T5 sequence (P46098 whole entry): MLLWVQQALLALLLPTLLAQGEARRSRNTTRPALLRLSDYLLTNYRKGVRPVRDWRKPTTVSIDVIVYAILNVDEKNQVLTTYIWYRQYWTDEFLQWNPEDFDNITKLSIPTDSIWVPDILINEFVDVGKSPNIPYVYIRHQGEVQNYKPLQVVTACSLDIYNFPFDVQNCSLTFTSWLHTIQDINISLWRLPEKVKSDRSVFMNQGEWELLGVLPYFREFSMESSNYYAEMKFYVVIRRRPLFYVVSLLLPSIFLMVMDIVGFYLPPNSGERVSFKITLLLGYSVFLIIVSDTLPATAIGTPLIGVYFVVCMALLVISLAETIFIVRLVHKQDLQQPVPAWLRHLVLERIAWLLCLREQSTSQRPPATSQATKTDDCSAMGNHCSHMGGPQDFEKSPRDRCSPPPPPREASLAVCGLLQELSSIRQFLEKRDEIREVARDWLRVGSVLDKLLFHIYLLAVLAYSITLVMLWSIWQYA
It counts as functional.

For assay [8], the target named is Sodium-dependent dopamine transporter (Homo sapiens, UniProt Q01959).
Assay [9] concerns the target T6, Amine oxidase [flavin-containing] A (Homo sapiens, UniProt P21397).
T6 sequence (P21397 whole entry): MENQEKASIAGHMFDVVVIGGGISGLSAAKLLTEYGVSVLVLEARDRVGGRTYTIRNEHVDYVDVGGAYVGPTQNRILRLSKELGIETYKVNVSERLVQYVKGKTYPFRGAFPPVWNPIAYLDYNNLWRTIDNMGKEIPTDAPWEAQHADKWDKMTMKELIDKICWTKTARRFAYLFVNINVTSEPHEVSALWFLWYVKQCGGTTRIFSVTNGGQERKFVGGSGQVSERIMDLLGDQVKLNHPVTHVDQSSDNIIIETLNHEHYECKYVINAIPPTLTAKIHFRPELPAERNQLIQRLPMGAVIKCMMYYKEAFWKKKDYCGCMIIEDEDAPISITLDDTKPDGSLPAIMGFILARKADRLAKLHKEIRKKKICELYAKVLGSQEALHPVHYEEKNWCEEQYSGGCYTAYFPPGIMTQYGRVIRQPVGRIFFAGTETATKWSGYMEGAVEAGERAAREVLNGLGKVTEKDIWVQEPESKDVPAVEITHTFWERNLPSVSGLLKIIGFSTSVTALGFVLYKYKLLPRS
It counts as functional.

Another assay deals with D(3) dopamine receptor (Homo sapiens, UniProt P35462).
Note: assay procedure not described here.

Sequence of Adenosine receptor A2a (P29274 whole entry): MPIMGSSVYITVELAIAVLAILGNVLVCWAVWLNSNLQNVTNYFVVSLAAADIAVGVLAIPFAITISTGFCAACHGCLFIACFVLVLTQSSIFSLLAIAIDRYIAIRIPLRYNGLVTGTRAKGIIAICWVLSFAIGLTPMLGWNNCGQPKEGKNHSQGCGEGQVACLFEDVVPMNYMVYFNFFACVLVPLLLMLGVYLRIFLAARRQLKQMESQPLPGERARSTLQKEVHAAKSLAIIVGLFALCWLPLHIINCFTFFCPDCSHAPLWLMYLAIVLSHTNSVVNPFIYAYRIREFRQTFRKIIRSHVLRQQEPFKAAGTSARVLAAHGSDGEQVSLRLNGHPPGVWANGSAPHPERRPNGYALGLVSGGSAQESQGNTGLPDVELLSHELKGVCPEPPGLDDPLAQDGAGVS
Sequence of D(3) dopamine receptor (P35462 whole entry): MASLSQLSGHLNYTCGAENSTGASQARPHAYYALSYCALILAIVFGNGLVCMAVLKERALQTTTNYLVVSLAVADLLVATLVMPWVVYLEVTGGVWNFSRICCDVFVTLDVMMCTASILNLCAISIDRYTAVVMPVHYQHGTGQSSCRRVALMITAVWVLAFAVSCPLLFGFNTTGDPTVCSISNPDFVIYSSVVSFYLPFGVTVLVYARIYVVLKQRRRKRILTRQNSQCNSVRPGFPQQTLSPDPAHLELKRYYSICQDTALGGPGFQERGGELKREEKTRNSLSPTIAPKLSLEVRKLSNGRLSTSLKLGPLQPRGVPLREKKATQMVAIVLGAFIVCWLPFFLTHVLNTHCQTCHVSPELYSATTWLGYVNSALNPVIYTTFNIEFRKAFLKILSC
T4 sequence (P21554 whole entry): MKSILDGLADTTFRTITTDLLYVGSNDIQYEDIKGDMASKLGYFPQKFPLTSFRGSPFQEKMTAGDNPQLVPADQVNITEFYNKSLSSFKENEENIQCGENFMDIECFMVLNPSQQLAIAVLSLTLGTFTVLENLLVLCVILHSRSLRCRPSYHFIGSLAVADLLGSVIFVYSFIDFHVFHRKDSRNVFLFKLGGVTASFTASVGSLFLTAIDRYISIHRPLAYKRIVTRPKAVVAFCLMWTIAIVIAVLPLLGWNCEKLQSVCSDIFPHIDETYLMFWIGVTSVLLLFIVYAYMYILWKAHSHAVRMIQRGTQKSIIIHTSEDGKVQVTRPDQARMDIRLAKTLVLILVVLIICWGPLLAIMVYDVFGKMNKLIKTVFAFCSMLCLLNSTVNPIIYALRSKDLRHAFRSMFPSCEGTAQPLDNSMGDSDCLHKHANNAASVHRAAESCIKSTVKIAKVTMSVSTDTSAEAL
Sequence of Sodium-dependent dopamine transporter (Q01959 whole entry): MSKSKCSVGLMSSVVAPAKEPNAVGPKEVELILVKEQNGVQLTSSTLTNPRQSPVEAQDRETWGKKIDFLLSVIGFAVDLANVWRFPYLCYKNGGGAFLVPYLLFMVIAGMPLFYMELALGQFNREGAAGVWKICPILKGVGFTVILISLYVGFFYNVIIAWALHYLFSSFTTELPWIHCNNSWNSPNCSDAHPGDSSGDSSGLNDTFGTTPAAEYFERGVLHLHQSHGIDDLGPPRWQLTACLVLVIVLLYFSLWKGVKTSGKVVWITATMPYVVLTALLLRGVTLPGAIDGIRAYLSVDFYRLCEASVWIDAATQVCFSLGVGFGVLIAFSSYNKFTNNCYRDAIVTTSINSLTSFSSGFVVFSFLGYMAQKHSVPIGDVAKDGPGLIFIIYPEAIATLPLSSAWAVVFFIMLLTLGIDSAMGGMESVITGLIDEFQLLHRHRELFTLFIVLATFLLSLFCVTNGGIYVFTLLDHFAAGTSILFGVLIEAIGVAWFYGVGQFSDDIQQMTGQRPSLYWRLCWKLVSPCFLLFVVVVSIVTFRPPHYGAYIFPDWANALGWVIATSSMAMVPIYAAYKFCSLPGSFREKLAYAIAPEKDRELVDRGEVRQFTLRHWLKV

Take `CC[C@@H](C(N)=O)N1CCCC1=O`: the AC50 (at Adenosine receptor A2a; in assay [1]; in assay [2]; in [3]; on Cannabinoid receptor 1 [4]; on Cannabinoid receptor 1 [5]) was greater than 30 µM throughout. The AC50 (in [6]; in assay [7]; in assay [8]; in assay [9]; at D(3) dopamine receptor) was greater than 30 µM in each case.

For the compound `CN(C)CCC=C1c2ccccc2C=Cc2ccccc21` [CYCLOBENZAPRINE], the AC50 on Adenosine receptor A2a was greater than 30 µM; in assay [1] it was greater than 10 µM; in assay [2] it was greater than 30 µM; in [3] it was 0.18 µM; on Cannabinoid receptor 1 [4], greater than 30 µM; at Cannabinoid receptor 1 [5], greater than 30 µM. Besides, the concentration at half-maximal activity (AC50) in [6] is greater than 10 µM; in assay [7], greater than 30 µM; in assay [8], greater than 30 µM; in [9], greater than 10 µM; on D(3) dopamine receptor, 1.1 µM.

On to `COc1ccc(C(=O)Nc2ccccc2CCC2CCCCN2C)cc1` (configuration not stated) [ENCAINIDE], for which the concentration at half-maximal activity (AC50) at Adenosine receptor A2a is greater than 30 µM; in [1] it was greater than 10 µM; in assay [2] it was greater than 30 µM; in assay [3], greater than 10 µM; on Cannabinoid receptor 1 [4], greater than 30 µM; at Cannabinoid receptor 1 [5] it was greater than 30 µM. Further, the AC50 was greater than 10 µM in [6]; greater than 30 µM in assay [7]; greater than 10 µM in assay [8]; greater than 10 µM in assay [9]; greater than 10 µM on D(3) dopamine receptor.

Take `COc1ccccc1N1CCN(CC(O)COc2cccc3ccccc23)CC1` (configuration not stated) [NAFTOPIDIL]: the AC50 was greater than 30 µM at Adenosine receptor A2a; 3.7 µM in [1]; greater than 30 µM in [3]; greater than 30 µM at Cannabinoid receptor 1 [4]; greater than 30 µM on Cannabinoid receptor 1 [5]; greater than 30 µM in assay [6]. Besides, the AC50 in [7] was greater than 30 µM; in [8] it was 5.5 µM; in [9] it was greater than 30 µM; at D(3) dopamine receptor, 0.42 µM.

Take `COC1=C(OC)C(=O)C(C/C=C(\C)CC/C=C(\C)CC/C=C(\C)CC/C=C(\C)CC/C=C(\C)CC/C=C(\C)CC/C=C(\C)CC/C=C(\C)CC/C=C(\C)CCC=C(C)C)=C(C)C1=O` [UBIDECARENONE]: the AC50 (in assay [1]; in assay [3]; at Cannabinoid receptor 1 [4]; at Cannabinoid receptor 1 [5]; in assay [6]; in assay [7]) was greater than 30 µM in each case. Besides, the AC50 (in assay [9]; on D(3) dopamine receptor) was greater than 30 µM each time.

As to `CCOc1ccccc1OCC1CNCCO1` (configuration not stated) [VILOXAZINE], the AC50 was greater than 30 µM at Adenosine receptor A2a; greater than 10 µM in assay [1]; greater than 30 µM in assay [2]; greater than 10 µM in [3]; greater than 30 µM at Cannabinoid receptor 1 [4]; greater than 30 µM on Cannabinoid receptor 1 [5]. Further, the AC50 (in assay [6]; in [7]; in assay [8]; in [9]; at D(3) dopamine receptor) was greater than 10 µM each time.

Usually AC50 stands for the concentration at which the activity in the assay is half-maximal. A higher AC50 goes with weaker potency.

Values taken from ChEMBL document CHEMBL5291721, “A preclinical secondary pharmacology resource illuminates target-adverse drug reaction associations of marketed drugs” (Nat Commun, 2023).
